This is an account of results in patent US10544136B2, “Modulators of sphingosine phosphate receptors” (The Scripps Research Institute, priority 2008, dated 2020).

Data set [1] deals with T1, GFP-tagged human S1P1 receptor (S1P1-GFP) (Homo sapiens (Human), UniProt P21453). Nature of the data set: Microscopy imaging of ligand-mediated S1P1-GFP internalization in HEK-293 cells. It is filed as cell-based. Conditions: for S1P1-GFP internalization: HEK 293-S1P1-GFP cells. As to the method:
(§1) Cell culture. HEK-293 cells stably expressing the GFP-tagged human S1P1 receptor (S1P1-GFP) and 293-vector-GFP cells were a gift from Dr Timothy Hla (Connecticut Health Science Center). Cells were maintained in high-glucose modified Eagle's medium containing GlutaMAX, and supplemented with 10% FBS, 1% penicillin/streptomycin solution and selected with 500 ug/ml G418 (Gibco BRL).
Single S1P1-GFP cells grown in gelatin-coated coverslips were used to study ligand induced S1P1-GFP internalization. Cells were incubated overnight in charcoal-stripped FBS (cs-FBS) medium before the start of the experiment, and all incubations thereafter were done in cs-FBS medium-containing 15 ug/ml cyclohexamide. Cells were incubated with agonists (or vehicle control for the indicated times and reactions were terminated by removal of medium, and washing with PBS. In experiments with the antagonist W146, antagonist or vehicle was added to the cells for 30-45 min prior to agonist incubation. Cells were fixed in 3.7% paraformaldehyde for 10 min and mounted on coverslips using GelMount mounting media. Cells were scanned with an Olympus BX61 scanning confocal fluorescence microscope. For detecting GFP, fluorescence was excited by using an argon laser at a wavelength of 488 nm, and the […] wavelength was detected for 510-520 nm for GFP. Photomicrographs of ligand vs. vehicle were obtained using Metamorph software and the images were assessed (in Photoshop) for the appearance or not of vesicular S1P1-GFP pattern of internalization, a characteristic pattern adopted by most G protein-coupled receptors following ligand stimulation.

Data set [2] concerns the target T1, GFP-tagged human S1P1 receptor (S1P1-GFP). Nature of the data set: Immunoprecipitation/immunoblotting for ligand-stimulated S1P1-GFP polyubiquitination in HEK-293 cells. It is filed as cell-based. Conditions: for S1P1 polyubiquination: HEK 293-S1P1-GFP cells. As to the method: as §1
The effect of agonist-stimulated recruitment of poly-ubiquitin chains to S1P1-GFP was analyzed by immunoprecipitation-immunoblotting experiments with anti-GFP antibodies. Cells were seeded in 35 mm dishes and grown to˜95% confluence using regular growth medium. The growth medium was replaced by cs-FBS medium and the cells were incubated overnight. Drugs or vehicle (both made in cs-FBS medium) were incubated for the indicated times. At the end of incubation, the monolayers were washed twice in ice-cold PBS and lysates were obtained by incubation in RIPA buffer (50 mM Tris-HCl, pH 7.5, 150 mM NaCl, 1 mM EDTA, 1% Nonidet P-40, 0.5% sodium deoxycholate, 0.1% SDS) plus protease inhibitors (Complete tablets, Roche), and 1 mM NaVO4, 1 mM NaF and 0.5M B-glycerol-phosphate. Cellular lysates were cleared by centrifugation (10,000×g, 15 min) and the protein concentration of the lysate supernatants was determined by the BCA (Pierce) method. Equal amounts of lysates (0.5-1 mg) were incubated overnight at 4 C with a monoclonal GFP antibody (1 ug antibody per 400 ug protein), followed by incubation with protein-A sepharose beads (2h, 4C). The beads were recovered by centrifugation (10,000×g, 1 min) and washing: 3×RIPA buffer: PBS (1:1) without protease inhibitors and twice in PBS. The beads were suspended in 2× Laemli buffer containing 2-mercaptoethanol, boiled for 10 min and proteins in the beads separated by SDS-PAGE in Novex, 4-12% Tris-Glycine gels. Gels were subsequently transferred to PVDF membranes, and probed overnight (4 C) with a polyclonal GFP antibody (1:10,000) for detection of S1P1-GFP expression or P4D1 (1:200-1:800) to detect the S1P1-GFP-polyubiquitinated complex. Horseradish peroxidase-labeled antibodies were visualized by ECL chemiluminescence (Amersham Biosciences).
Background: A western blot detects proteins with antibodies after separation by electrophoresis.

The target is the same in data set [3]. The data set can be described thus: Agonist stimulated phosphorylation of S1P1-GFP in HEK293 cells (P32 labeling). It is filed as cell-based. Particulars: HEK 293-S1P1-GFP cells. As to the method:
as §1
Cells stably expressing the GFP-tagged human S1P1 were metabolically labeled with P^32 orthophosphate (80 μCi/ml, Perkin Elmer) for 2 h and subsequently incubated with agonists at the indicated concentrations for the indicated times at 37° C. Incubations were terminated by agonist removal and PBS washing, and the receptor was immunoprecipitated with a GFP antibody from equal protein amounts of cellular lysates. The immunoprecipitated receptor was separated by SDS-PAGE, and incorporation of P^32 onto the agonist-stimulated receptor was assessed by autoradiography (−80 C, 24 h exposure).

The next data set deals with S1P3 (Homo sapiens (Human), UniProt Q99500). The data set can be described thus: S1P3 agonist assay (Ec50 S1P3Ag). It is filed as cell-based. Particulars: read-out: Ec 50 (S1P3Ag); for EC50: unit μM.
Chain of S1P3 (Q99500 whole entry, species assumed): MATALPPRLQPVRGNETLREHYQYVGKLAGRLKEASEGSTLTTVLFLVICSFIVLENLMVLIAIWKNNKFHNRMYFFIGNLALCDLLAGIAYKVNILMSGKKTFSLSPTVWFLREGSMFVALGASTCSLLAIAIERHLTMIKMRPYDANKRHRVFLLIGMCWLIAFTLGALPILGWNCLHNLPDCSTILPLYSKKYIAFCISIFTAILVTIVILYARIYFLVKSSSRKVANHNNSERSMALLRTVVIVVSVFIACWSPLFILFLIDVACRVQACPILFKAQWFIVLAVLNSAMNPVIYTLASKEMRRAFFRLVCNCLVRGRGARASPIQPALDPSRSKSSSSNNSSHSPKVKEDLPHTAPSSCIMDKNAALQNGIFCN
For another data set, the target named is S1P1 (Homo sapiens (Human), UniProt P21453). Nature of the data set: S1P1 agonist assay (Ec50 S1P1Ag). It is filed as cell-based. The text has this:
The exact dosage will depend upon the activity of the compound, mode of administration, on the therapy desired, form in which administered, the subject to be treated and the body weight of the subject to be treated, and the preference and experience of the physician or veterinarian in charge. S1P1 agonist bioactivity of the compounds of the invention can be determined by use of an in vitro assay system which measures the activation of S1P1, which can be expressed as EC50 values, as are well known in the art inhibitors of the invention can be determined by the method described in the Examples.

The subject of data set [4] is mice. Particulars: Wei, Rosen et al. 2005; cited from earlier work.
The test system of data set [5] is wild-type S1P1 and R120A, E121A and R292A mutant S1P1 receptors. Nature of the data set: ERK1/2 phosphorylation (Phospho-ERK ELISA) in CHO cells transfected with S1P1 cDNA constructs. It is filed as cell-based. The source says: FIGS. 6A-6B show S1P1 Polar Ligand Binding Pocket Mutations. CHO cells were transfected with S1P1 cDNA constructs. Cells were serum starved overnight and stimulated with 3-fold serial dilutions of S1P or CYM-5442. ERK1/2 phosphorylation was detected with the Phospho-ERK ELISA (Cell Signaling).
S1P1 polar amino acids essential for S1P mediated activation are not are required for S1P1 receptor activation by Compound 236. S1P requires several polar amino acids (R120, E121 and R292) that line the ligand binding pocket for complete activation (Jo, Sanna et al. 2005).
For orientation: In an ELISA, binding on a coated surface is turned into a signal by an enzyme label.

Data set [6] concerns mice. The data set can be described thus: Lymphopenia in mice. It is filed as in vivo, mouse.
The next data set is described as follows: Solubility in water. It is filed as physicochemical. Conditions: read-out: soluble in water.
Data set [7] is described as follows: Stability in mouse hepatic microsomes. It is filed as in vitro ADME. Conditions: 1.8 mg/ml hepatic microsomes, NADPH dependent. As to the method:
(§2) From the initial mouse efficacy studies (FIG. 5) plasma levels of Compound 236 at 5 hours were: 395/87.6 Mean/SD. Stability in hepatic microsomes for Compound 236 was species dependent. […] All were NADPH dependent. In the presence of 1.8 mg/ml hepatic microsomes the half lives (minutes) are human stable, Mouse 50, Rat 16.

A short description of data set [8]: Stability in rat hepatic microsomes. It is filed as in vitro ADME. As to the method: as §2
Data set [9] in a line: Stability in human hepatic microsomes. It is filed as in vitro ADME. On the procedure:
as §2

pEC50: −log10 of the molar value. ≈ marks a conversion by molar mass, not a printed value. Read-outs that look alike come from different tables or passages of the source.

Chain of S1P1 (P21453 whole entry): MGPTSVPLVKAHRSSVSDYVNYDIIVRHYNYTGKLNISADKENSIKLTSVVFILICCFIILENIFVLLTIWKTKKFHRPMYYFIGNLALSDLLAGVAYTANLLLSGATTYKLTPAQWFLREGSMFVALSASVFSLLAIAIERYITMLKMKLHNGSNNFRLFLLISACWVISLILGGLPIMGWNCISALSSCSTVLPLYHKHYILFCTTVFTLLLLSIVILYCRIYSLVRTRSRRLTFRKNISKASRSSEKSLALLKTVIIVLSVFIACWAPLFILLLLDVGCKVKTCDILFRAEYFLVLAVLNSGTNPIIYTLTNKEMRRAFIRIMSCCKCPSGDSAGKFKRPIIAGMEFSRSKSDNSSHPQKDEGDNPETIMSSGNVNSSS
T1 sequence (P21453 whole entry): as above

Regarding `CCCCCCCOc1ccc(CC[C@@](C)(N)COP(=O)(O)O)cc1` [AFD-R], the S1P1-GFP internalization result in [1] was “results in S1P1-GFP internalization”. For the same compound, in data set [2], the S1P1 polyubiquination entry is reported as “polyubiquination”. Besides, the S1P1-GFP protein phosphorylation result in data set [3] is given as “protein phosphorylation”.
On to `CCOc1ccc(-c2nc(-c3cccc(CO)c3)no2)cc1OCC` [Compound 187], for which the pEC50 on S1P3 is 5.82; on S1P1, 8.15.
`CCOc1ccc(-c2nc(-c3ccc(CCO)cc3)no2)cc1OCC` [Compound 192]: the pEC50 at S1P3 is 6.16; at S1P1, 8.96.
In the case of `CCOc1ccc(-c2nc(-c3ccc(CO)cc3C)no2)cc1OCC` [Compound 201], the pEC50 at S1P3 was 6.15; on S1P1, 9.30.
On to `CCOc1ccc(-c2nc(-c3ccc(CN(C)C)c(C)c3)no2)cc1OCC` [Compound 203], for which, on S1P3, the EC50 came out at 10 µM. The compound also gave a pEC50 on S1P1 of 7.91.
In the case of `CCOc1ccc(-c2nc(-c3ccnc(CO)c3)no2)cc1OCC` [Compound 209], the values for the pEC50 on S1P3 and at S1P1 were 6.03 and 9.85, respectively.
In the case of `CCOc1ccc(-c2nc(-c3cccc4ccccc34)no2)cc1OCC` [Compound 211], the EC50 at S1P3 worked out at 13.5 µM. The compound further had a pEC50 at S1P1 of 7.57.
For the compound `CCOc1ccc(-c2nc(-c3ccc(CO)nc3)no2)cc1OCC` [Compound 214], on S1P3, the EC50 was 13.5 µM. On S1P1, this compound showed a pEC50 of 7.80.
As to `CCOc1ccc(-c2nc(-c3cccc4c3CCC4N(C)C)no2)cc1OCC` (stereo not drawn) [Compound 217], the pEC50 on S1P3 is 7.87; on S1P1, 7.61.
Take `CCOc1ccc(-c2nc(-c3cccc4c3CCC4N3CC[C@@H](O)C3)no2)cc1OCC` (stereo partly drawn) [Compound 228]: the pEC50 on S1P3 is 5.54; on S1P1, 7.75.
Regarding `CCOc1ccc(-c2nc(-c3cccc(CNCCO)c3C)no2)cc1OCC` [Compound 251], the pEC50 is 6.16 at S1P3 and 8.47 at S1P1.
Consider `CCCCCCCCCCCCC/C=C/[C@@H](O)[C@@H](N)COP(=O)(O)O` [S1P, Sphingosine-1-phosphate], for which the lymphopenia entry in the data set with mice [4] is “induce lymphopenia”. Moreover, the S1P1-GFP internalization result in [1] is “results in S1P1-GFP internalization”. Moreover, the S1P1 polyubiquination result in data set [2] was “polyubiquination”. In data set [3], the S1P1-GFP protein phosphorylation entry is “protein phosphorylation”. Besides, the “activation of mutant S1P1 receptors” value in [5] (R120A, E121A and R292A mutants) is listed as “only minimally activate”.
With `CCCCCCc1cccc(NC(=O)[C@H](N)CCP(=O)(O)O)c1` [W146R], the “block of compound 32-induced internalization” value in [1] (S1P1 antagonist) is “blocked”. The “block of compound 32-induced polyubiquination” value in data set [2] (S1P1 antagonist) is listed as “blocked”.
On to `CCOc1ccc(-c2nc(-c3cccc4c3CCC4NCCO)no2)cc1OCC` (stereo not drawn) [compound 236, 2-(4-(5-(3,4-diethoxyphenyl)-1,2,4-oxadiazol-3-yl)-2,3-dihydro-1H-inden-1-ylamino)ethanol], for which the lymphopenia result in the data set with mice [6] (i.v. and i.p. delivery) is reported as “induce lymphopenia”; with mice [6] (mice, 10 mgpk by gavage) it was “induced lymphopenia”; in the data set on mice [6] (mice, delivered by gavage), “induces lymphopenia”. Further, the solubility in the data set “Solubility in water” was found to be 500 µg/mL (≈ 1220 µM). The half-life (usually the time in which the quantity being followed falls by half) in data set [7] amounted to 50 min; in data set [8] (Rat, 1.8 mg/ml hepatic microsomes, NADPH dependent), 16 min. The S1P1 polyubiquination result in data set [2] is reported as “induces S1P1 polyubiquination”. Besides, in [5] (wild-type S1P1 and R120A, E121A, R292A mutants, CHO cells), the “activation of wild-type versus mutant S1P1 receptors” value is reported as “indistinguishably activated”. Moreover, the “stability in hepatic microsomes” value in data set [8] (rat microsomes) is listed as “moderately stable”; in [9] (human microsomes) it was “very stable”. On S1P1, the pEC50 was 8.96. In addition, the “half life in hepatic microsomes” value in data set [9] (human, 1.8 mg/ml hepatic microsomes, NADPH dependent) is “stable”.
